EP3318253B1, “COMPOSITIONS COMPRISING WNT INHIBITORS FOR TREATING CANCER” (Schmidt-Wolf, Ingo, priority 2010, dated 2012)
Read-outs that look alike come from different tables or passages of the source.

Legend:
[1] = system: lymphoma cell lines; experiment: Cell viability by DiOC6 staining in lymphoma cell lines; format: cell-based, human; details: result in words
Method: (§1) Experiments were performed as reported recently.
(§2) PBL derived from healthy individuals were used as controls. […] ND, not done.

[2] = system: OPM-2 myeloma cells; experiment: Cell viability by DiOC6 staining, flow cytometry; format: cell-based, human; details: Homo sapiens, 72 h; OPM-2; 1x10^5 cells cultured three days, various concentrations
Method: as §1, §2

[3] = system: MPC11 myeloma cells; details: 750 µg lenalidomide/day
Method: All animal experiments were done at least in duplicate with groups of 6 BALB/c mice (Charles River, Sulzfeld, Germany). 5x10^5 MCP11 murine myeloma cells were injected per mouse subcutaneously into Balb/c mice. […] Overall survival and tumor growth were measured. Tumor volume was calculated as follows: volume = length x width^2 x 0,52. Animals were killed when tumor volume reached 2000 mm^3.
• Figure 1. […] 1x10^5 cells were cultured with different compounds for three days. The concentration of thalidomide was U266 160µM for U266, RPMI 20µM for RPMI, and OPM 40µM for OPM cells. Then cell viability was measured by DIOC6 staining in flow cytometry. Results represent data from three, two and five separate experiments, respectively. Separate U266 n=3, RPMI n=2, OPM n=5 experiments. Data are shown as mean ± SD. • Figure 2. […] 1x10^5 OPM cells were cultured with the different compounds for three days. The concentration of lenalidomide was 12µM for OPM and 80µM for RPMI cells. Then cell viability was measured by DIOC6 staining in flow cytometry. Results represent data from eight and five OPM n=8, RPMI n=5 separate experiments, respectively. Data are shown as mean ± SD. • Figure 3. […] (A) Flow cytometric results. […] Western Blot analysis for the detection of β-catenin in myeloma cell lines under normal conditions. The myeloma cell lines RPMI 8226, KMS-18 and U266 were analyzed according to their β-catenin expression. • Figure 4B. […] As primary antibodies purified mouse anti-β-catenin and β-actin were used at a dilution of 1:1000 and as secondary antibody served goat anti-mouse IgG-HRP at a dilution of 1:5000. Finally, ECL reagent was utilized for detection. • Figure 4C. […] As primary antibodies Purified mouse anti-β-catenin and β-actin were used at a dilution of 1:1000 and as secondary antibody served goat anti-mouse IgG-HRP at a dilution of 1:5000. Finally, ECL reagent was utilized for detection. • Figure 5. […] Results represent data from two separate experiments. Data are shown as mean. • Figure 6. […] BALB/c mice were injected with 5x10^5 MPC11 myeloma cells subcutaneously. (A) Tumor growth and (B) overall survival were measured. Six animals were assayed per group.
All animal experiments were done at least in duplicate with groups of 6 BALB/c mice (Charles River, Sulzfeld, Germany). 5x10^5 MCP11 murine myeloma cells were injected per mouse subcutaneously into Balb/c mice. Mice were treated orally with 450µg/day CIC and 750 µg lenalidomide/day, respectively. Overall survival and tumor growth were measured. Tumor volume was calculated as follows: volume = length x width^2 x 0,52. Animals were killed when tumor volume reached 2000 mm^3.
• Figure 7. […] 1x10^5 cells were cultured with different compounds for three days. The concentration of thalidomide was U266 160µM for U266, RPMI 20µM for RPMI, and OPM 40µM for OPM cells. Then cell viability was measured by DIOC6 staining in flow cytometry. Results represent data from three, two and five separate experiments, respectively. Separate U266 n=3, RPMI n=2, OPM n=5 experiments. Data are shown as mean ± SD. • Figure 8. […] 1x10^5 OPM cells were cultured with the different compounds for three days. The concentration of lenalidomide was 12µM for OPM and 80µM for RPMI cells. Then cell viability was measured by DIOC6 staining in flow cytometry. Results represent data from eight and five OPM n=8, RPMI n=5 separate experiments, respectively. Data are shown as mean ± SD. • Figure 9. […] (A) Flow cytometric results. (B) We analyzed the effect of CIC on the Wnt/beta catenin pathway by Western blot. • Figure 10A. Western Blot analysis for the detection of β-catenin in myeloma cell lines under normal conditions. The myeloma cell lines RPMI 8226, KMS-18 and U266 were analyzed according to their β-catenin expression. • Figure 10B.

[4] = system: primary myeloma cells derived from bone marrow from patients with multiple myeloma; experiment: Viability of myeloma primary cells from bone marrow; format: cell-based, human; details: incubated three days; preliminary data
Method: Bone marrow samples from patients with myeloma were taken after informed consent, single cell suspensions generated and cells ficolled. Cells were incubated with or without EA for three days and measured for viability.
• Figure 1. […] Data are shown as mean ± SD. • Figure 2. […] Data are shown as mean ± SD. • Figure 3. […] (A) Flow cytometric results. […] Finally, ECL reagent was utilized for detection. • Figure 4C. […] Finally, ECL reagent was utilized for detection. • Figure 5. Effect of EA on viability of myeloma primary cells. […] Results represent data from two separate experiments. Data are shown as mean. • Figure 6. […] (A) Tumor growth and (B) overall survival were measured. Six animals were assayed per group.
Bone marrow samples from patients with myeloma were taken after informed consent, single cell suspensions generated and cells ficolled. Cells were incubated with or without CIC for three days and measured for viability.
Bone marrow samples from patients with myeloma were taken after informed consent, single cell suspensions generated and cells ficolled. Cells were incubated with or without GF for three days and measured for viability.

[5] = biological target: LEF-1 protein (Homo sapiens, UniProt Q9UJU2); details: immune co-precipitation; destabilizes the LEF-1/β-catenin complex; cited from earlier work
Chain of LEF-1 protein (Q9UJU2 whole entry): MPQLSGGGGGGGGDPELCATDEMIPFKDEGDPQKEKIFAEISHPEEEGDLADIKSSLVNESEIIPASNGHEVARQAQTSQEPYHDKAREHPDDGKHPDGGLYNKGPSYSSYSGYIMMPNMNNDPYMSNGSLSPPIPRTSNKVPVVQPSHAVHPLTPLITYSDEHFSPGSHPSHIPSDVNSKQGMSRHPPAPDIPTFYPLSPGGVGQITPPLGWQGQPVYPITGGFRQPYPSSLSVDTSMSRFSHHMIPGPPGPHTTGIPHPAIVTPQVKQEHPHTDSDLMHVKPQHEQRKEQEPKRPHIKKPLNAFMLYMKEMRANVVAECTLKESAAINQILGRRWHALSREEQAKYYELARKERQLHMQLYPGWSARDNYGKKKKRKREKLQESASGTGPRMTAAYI

[6] = system: Wnt/β-catenin target genes, including LEF-1, cyclin D1 and fibronectin; details: CLL cells exposed to EA; cited from earlier work
[7] = Cell viability by DiOC6 staining, flow cytometry (normal control cells); format: cell-based, human; details: human; control of PBMC; after 72 h; read-out: relative viability
Method: PBMCs were isolated from blood of healthy donors by Ficoll-Hypaque density gradient centrifugation. Blood from buffy coats was mixed 1:2 with PBS/1% BSA (both PAA, Cölbe, Germany) and used for a ficoll gradient (LymphoPrep, PAA, Cölbe, Germany). After the centrifugation at 800 g for 30 minutes, the leukocyte layer was removed and transferred to new tubes. Subsequently, these cells were washed 3 times with PBS/1%BSA and re-suspended in fresh medium, consisting of RPMI medium (PAA, Cölbe, Germany) with 10% fetal calf serum (Invitrogen, Karlsruhe, Germany), 2.5% hepes buffer solution (PAA, Cölbe, Germany), and 1% penicillin/streptomycin (PAA, Cölbe, Germany).
as §1

Compound	viability of lymphoma cell lines in vitro [1]	IC50 [2] [µM]	Tumor growth ([3]; oral 450µg/day CIC, compared to control mice)	growth of primary myeloma cells [4]	binding to LEF-1 protein [5]	expression of Wnt/β-catenin target genes [6]	Tumor growth ([3]; oral 450µg/day EA, compared to mice treated with lenalidomide alone, p<0.001)	viability at 72 h, 30 µM [7] [%]
Cc1cc(C2CCCCC2)n(O)c(=O)c1 [CIC, ciclopirox olamine]	significantly (p<0.05) decreased	5	significantly reduced	inhibits the growth				
C=C(CC)C(=O)c1ccc(OCC(=O)O)c(Cl)c1Cl [EA, 2-[2,3-dichloro-4-(2-methylidenebutanoyl)phenoxy] acetic acid]	significantly (p<0.05) decreased	22		inhibits the growth	directly bind	decreased	significantly reduced	89.5 ± 3.1
